{"source": "paper PMC11359702", "about": "“Synthesis and Biochemical Evaluation of Ethanoanthracenes and Related Compounds: Antiproliferative and Pro-Apoptotic Effects in Chronic Lymphocytic Leukemia (CLL)” (Pharmaceuticals, 2024)", "key": {"[1]": {"system": "PGA-1 cells", "experiment": "alamarBlue cell viability assay", "conditions": "Homo sapiens, 24 h"}, "[2]": {"system": "chemoresistant DG-75 cell line", "design": "method as in PMID 31963567", "conditions": "chemoresistant DG-75 cell line ref 43; cited from earlier work"}, "[3]": {"system": "healthy-donor peripheral blood mononuclear cells (PBMCs)", "experiment": "Annexin V/PI assay in donor PBMCs", "type": "cell-based", "conditions": "0.34 and 0.68 µM, 48 h", "text": "Whole blood samples from healthy donors (×5) were isolated, prepared and treated following the protocol previously described. The percentage of apoptosis observed in the treatment of isolated donor PBMCs with nitrovinylethanoanthracene 20a is concentration-dependent (Figure 11A). […] For ethanoanthracene 23a, the percentage of total apoptosis observed is illustrated in Figure 11B. […] The percentage of total apoptosis observed in the treatment of isolated donor PBMCs with the anthracene–chalcone 25n (normalized against vehicle 0.5% v/v DMSO) is illustrated in Figure 11C, and the dose-response behavior was also concentration-dependent, with compound 25n moderately toxic to healthy-donor PBMCs when treated at a 5.00 µM concentration (39%).\nThe human peripheral blood mononuclear cells (PBMCs) were generated as follows: peripheral blood was obtained from healthy donors (n = 2) after informed consent was received. The blood was then placed into a 50-mL falcon tube and diluted with an equal volume of phosphate-buffered saline (PBS). PBMCs were isolated using density-gradient centrifugation with LymphoPrep, as described previously. The cells were resuspended in RPMI media containing 10% FBS and 1% penicillin/streptomycin (P/S). The cells were counted using a haemocytometer and seeded into 96 well plates at a density of 1 × 10^5 cells/well (200 µL), and they were incubated at 37 °C for 1 h prior to compound treatment. The Annexin V/PI assay was used as a preliminary method of assessing the selective toxicity of the above compounds when compared with a previous alamarBlue cell viability assay in CLL cell lines. The assay was carried out as described above for the Annexin V/PI assay previously described above, and it was completed in triplicate on two independent days. Approval for this study was obtained from the School of Pharmacy and Pharmaceutical Sciences Trinity College Dublin Research Ethics Committee (2020-06-01-MS)."}, "[4]": {"system": "HG-3 cells", "experiment": "LDH cytotoxicity assay (CytoTox 96)", "type": "cell-based", "conditions": "HG-3, 10 µM, 24 h, lysis solution = 100%", "text": "(§1) The lactate dehydrogenase (LDH) assay is used to assess the membrane integrity of cells as a function of the cytoplasmic LDH released. The loss of cell membrane integrity (due to cytotoxic insult) is detectable through LDH release into the cell growth medium. The assay is initiated via the reduction in cellular co-factor NAD^+ to NADH catalyzed via the LDH enzyme. Newly formed NADH catalyzes the acidic reduction in iodonitrotetrazolium chloride (INT) to the highly colored formazan (red) (mediated via the diaphorase enzyme). […] At the 10-µM treatment concentration, mild to moderate cytotoxicity (19–47%) was observed. […] Cytotoxicity remained low to mild at 1 µM (4–18%) with 23a displaying the lowest LDH release (4%).\n(§2) Following the treatment of the HG-3 and PGA-1 cells at 10 µM for 24 hr, the amount of LDH released was determined using an LDH assay kit from Promega (G1780). Cell lysis solution = 100% cell lysis and LDH release). Data are presented as % cell death at a concentration of 10 µM. Cells were treated with ethanoanthracene compounds 20a, 20f, 23a and 25n (1 µM and 10 µM) for 24 h. Values are shown as the mean of three independent experiments.\n(§3) The cytotoxicity of the selected compounds 20a, 20f, 23a and 25n was determined using the CytoTox 96 non-radioactive cytotoxicity assay (Promega Corporation; 2800 Woods Hollow Road, Madison, WI, USA). CLL cells HG-3 and PGA-1 were incubated for 24 h and then treated with the selected compounds 20a, 20f, 23a and 25n at 10-µM and 1-µM concentrations, following the protocol outlined above in the cell viability assay. After 24 h, the lysis solution (10×) (20 µL) was added, and the cells were incubated for a further 1 h to ensure complete cell death. Supernatant (50 µL) was removed from each well and transferred to a clean 96-well plate. “Substrate mix” (50 µL) was added, and the plate was stored in the dark at 20 °C for 30 min. “Stop solution” (50 µL) was added to each well, and the absorbance at 490 nm was recorded using a Dynatech MR5000 plate reader; the % cell death was determined relative to the control cell lysis solution."}, "[5]": {"system": "PGA-1 cells", "experiment": "LDH cytotoxicity assay (CytoTox 96)", "type": "cell-based", "conditions": "PGA-1, 10 µM, 24 h", "text": "as §1, §2, §3"}, "[6]": {"system": "HG-3 cells", "experiment": "alamarBlue viability after pan-caspase inhibitor Z-VAD-FMK pre-treatment", "type": "cell-based, human", "text": "Caspases (cysteine-aspartic proteases) are a family of aspartic acid residue-specific regulatory cysteine proteases that play an essential role in key cellular homeostatic processes such as inflammation and programmed cell death through the induction of apoptosis. To assess whether the biological activity of both major ethanoanthracene classes (nitrostyrene and chalcone-based) is caspase-dependent, compounds 20a and 23a (representing Series 1 and Series 4, respectively) (Figure 13) were selected for evaluation at treatment concentrations of 10 µM and 1 µM across both CLL cell lines using a caspase assay protocol. In HG-3 cells, pre-treatment with pan-caspase inhibitor (CI) Z-VAD-FMK [85] […] Little difference was found between cell viability responses (with or without the caspase inhibitor) at both 10-µM and 1-µM concentrations for compound 20a.\nCompounds 20a and 23a (representing Series 1 and Series 4, respectively) were selected for evaluation at two treatment concentrations, 10 µM and 1 µM, across both HG-3 and PGA-1 CLL cells. […] The output was statistically analyzed using a one-way ANOVA with a Bonferroni multiple-comparison test. […]"}, "[7]": {"system": "HG-3 cells", "experiment": "Annexin V/PI apoptosis assay (FACS)", "type": "cell-based, human", "protocol": "(§4) The pro-apoptotic effects of selected nitrovinylethanoanthracene compounds 20a and 20f and anthracene chalcones 23a and 25n in HG-3 cells and PGA-1 cells was then investigated using FITC (fluorescein isothiocyanate), Annexin V/PI (propidium iodide) and FACS (fluorescence-activated cell sorting) analysis to characterize the mode of cellular death induced. Apoptosis was assessed as % total apoptosis (total of early (Q3) and late (Q2) apoptosis).\n(§5) CLL cells PGA-1 and HG-3 (1 × 10^6 cells/mL) were treated at 37 °C with either the vehicle (1% (v/v) DMSO) or the ethanoanthracene compounds 20a, 20f, 23a and 25n (10 µM, 5 µM and 1 µM) for 48 h, following the protocol previously described. The cells were then harvested via centrifugation at 400× g in a temperature-controlled Sorvall centrifuge. The cells were rinsed with Ca^2+ Annexin-V-binding buffer (0.1 M HEPES, pH 7.4; 0.14 M NaCl; 25 mM CaCl2, 0.5 mL). The samples were resuspended in FITC Annexin V (diluted 1:33 in Ca^2+ Annexin V-binding buffer, 50 µL) and incubated for 10 min (on ice and protected from light). The samples were washed with Annexin-V-binding buffer and resuspended in a PI solution (0.5 µg/mL, 500 µL) and analyzed within 1 h using a BD Accuri C6 flow cytometer counting 10,000 cells using the FlowJo software Version 10 (FlowJo LLC, Ashland, OR, USA)."}, "[8]": {"system": "PGA-1 cells", "experiment": "Annexin V/PI apoptosis assay (FACS)", "type": "cell-based, human", "protocol": "as §4, §5"}, "[9]": {"system": "chemosensitive MUTU-1 cell line", "design": "method as in PMID 31963567", "conditions": "chemosensitive MUTU-1 cell line ref 43; cited from earlier work"}, "[10]": {"system": "HG-3 and PGA-1 cell lines", "experiment": "alamarBlue cell viability assay, mean of both CLL cell lines", "type": "cell-based, human", "conditions": "Homo sapiens, CLL cell; mean of HG-3 and PGA-1"}, "[11]": {"system": "HG-3 cells", "experiment": "alamarBlue cell viability assay", "conditions": "Homo sapiens, HG-3, 24 h"}, "[12]": {"system": "CLL patients", "design": "method as in PMID 23291630, PMID 31160589", "conditions": "CLL patients ref 28,29; cited from earlier work"}, "[13]": {"system": "cancer cells isolated from CLL patients", "conditions": "cancer cells isolated from CLL patients ref 39; cited from earlier work"}}, "note": "Values joined by “and” are separate entries in the source; they are usually repeats but may differ in a detail not shown here. Identical values can stand only once."}
{"smiles": "O=C1C2C3c4ccccc4C(C=C[N+](=O)[O-])(c4ccccc43)C2C(=O)N1c1ccccc1", "note": "(stereo not drawn) [Compound 20a]", "values": [{"measurement": "IC50", "setting": "[1]; read-out: PGA-1 IC50", "value": 610, "unit": "nM"}, {"measurement": "viability at 10 µM", "setting": "[1]; read-out: cell viability", "value": 11, "unit": "%"}, {"measurement": "IC50", "setting": "[2]", "value": 710, "unit": "nM"}, {"measurement": "total apoptosis (toxicity) in healthy-donor PBMCs", "setting": "[3]", "value": "10–35%"}, {"measurement": "LDH release (cytotoxicity, % cell death)", "setting": "[4]", "value": 33, "unit": "%"}, {"measurement": "LDH release (cytotoxicity, % cell death)", "setting": "[5]", "value": 9, "unit": "%"}, {"measurement": "decrease in cell viability after Z-VAD-FMK pre-treatment", "setting": "[6]; HG-3, 1 µM compound", "value": 2, "unit": "%"}, {"measurement": "decrease in cell viability after Z-VAD-FMK pre-treatment", "setting": "[6]; HG-3, 10 µM compound", "value": 10, "unit": "%"}, {"measurement": "total apoptosis (early Q3 + late Q2)", "setting": "[7]; HG-3, 1 µM", "value": 82, "unit": "%"}, {"measurement": "total apoptosis (early Q3 + late Q2)", "setting": "[7]; HG-3, 10 µM", "value": "82–95% and 95%"}, {"measurement": "total apoptosis (early Q3 + late Q2)", "setting": "[8]; PGA-1, 1 µM", "value": 83, "unit": "%"}, {"measurement": "total apoptosis (early Q3 + late Q2)", "setting": "[8]; PGA-1, 10 µM", "value": "87–97% and 97%"}, {"measurement": "IC50", "setting": "[9]", "value": 210, "unit": "nM"}, {"measurement": "IC50", "setting": "[10]", "value": 550, "unit": "nM"}, {"measurement": "IC50", "setting": "[11]; read-out: HG-3 IC50", "value": 480, "unit": "nM"}, {"measurement": "viability at 10 µM", "setting": "[11]; read-out: cell viability, HG-3, 10 µM, 24 h, vehicle = 100%", "value": "14 to 43", "unit": "%"}]}
{"smiles": "CC1(C)CCC(CN2CCN(c3ccc(C(=O)NS(=O)(=O)c4ccc(NCC5CCOCC5)c([N+](=O)[O-])c4)c(Oc4cnc5[nH]ccc5c4)c3)CC2)=C(c2ccc(Cl)cc2)C1", "note": "[Venetoclax]", "values": [{"measurement": "overall response", "setting": "[12]", "value": 80, "unit": "%"}]}
{"smiles": "Nc1nc(F)nc2c1ncn2[C@@H]1O[C@H](COP(=O)(O)O)[C@@H](O)[C@@H]1O", "note": "[fludarabine phosphate]", "values": [{"measurement": "increase in apoptosis", "setting": "[13]", "value": 24.6, "unit": "%"}]}
